# Assay results taken from ChEMBL document CHEMBL5550122, “Photodynamic anticancer activity evaluation of novel 5-aminolevulinic acid and 3-hydroxypyridinone conjugates” (Bioorg Med Chem, 2024).
# pIC50: −log10 of the molar value. Active and inactive are the calls of the source. No cut-off for these calls is given here.
# Legend:
# A-375 [1] = assay: Cytotoxicity against human A-375 cells assessed as reduction in cell viability preincubated for 4 hrs under dark condition in presence of 5-aminolevulinic acid followed by irradiation with blue light at 2.5 J.cm^-2 energy level for 5 mins and measured after 18 hrs by MTT assay; format: functional, cell-based; details: A-375, light or radiation study
# MCF7 [2] = assay: Cytotoxicity against human MCF7 cells assessed as reduction in cell viability preincubated for 4 hrs under dark condition in presence of 5-aminolevulinic acid followed by irradiation with blue light at 2.5 J.cm^-2 energy level for 5 mins and measured after 18 hrs by MTT assay; format: functional, cell-based; details: MCF7, light or radiation study
# HeLa [3] = assay: Cytotoxicity against human HeLa cells assessed as reduction in cell viability preincubated for 4 hrs under dark condition in presence of 5-aminolevulinic acid followed by irradiation with blue light at 2.5 J.cm^-2 energy level for 5 mins and measured after 18 hrs by MTT assay; format: functional, cell-based; details: light or radiation study
# [4] = (§1) Prodrug release in human MCF7 cells assessed as 3-[(1Z,4Z,9Z,15Z)-7-(2-carboxyethyl)-3,8,12,17-tetramethyl-13,18-divinyl-21,23-dihydroporphyrin-2-yl]propanoic acid release by measuring increase in fluorescence intensity at 20 to 80 uM by microplate reader analysis; format: ADME, cell-based; details: mcf7, 80 µM, dose 20-80 µM
# MCF7 [5] = assay: Cytotoxicity against human MCF7 cells assessed as reduction in cell viability preincubated for 4 hrs under dark condition followed by irradiation with blue light at 2.5 J.cm^-2 energy level for 5 mins and measured after 18 hrs by MTT assay; format: functional, cell-based; details: MCF7, light or radiation study
# HeLa [6] = assay: Cytotoxicity against human HeLa cells assessed as reduction in cell viability preincubated for 4 hrs under dark condition followed by irradiation with blue light at 2.5 J.cm^-2 energy level for 5 mins and measured after 18 hrs by MTT assay; format: functional, cell-based; details: light or radiation study
# [7] = (§2) Prodrug release in human A-375 cells assessed as 3-[(1Z,4Z,9Z,15Z)-7-(2-carboxyethyl)-3,8,12,17-tetramethyl-13,18-divinyl-21,23-dihydroporphyrin-2-yl]propanoic acid release by measuring increase in fluorescence intensity at 20 to 80 uM by microplate reader analysis; format: ADME, cell-based; details: a-375, 80 µM, dose 20-80 µM
# A-375 [8] = assay: Cytotoxicity against human A-375 cells assessed as reduction in cell viability preincubated for 4 hrs under dark condition followed by irradiation with blue light at 2.5 J.cm^-2 energy level for 5 mins and measured after 18 hrs by MTT assay; format: functional, cell-based; details: A-375, light or radiation study
# [9] = Drug metabolism assessed as esterase (unknown origin) mediated hydrolysis by measuring hydroxypyridinone formation; format: ADME; details: human
# [10] = (§3) Prodrug release in human Hela cells assessed as 3-[(1Z,4Z,9Z,15Z)-7-(2-carboxyethyl)-3,8,12,17-tetramethyl-13,18-divinyl-21,23-dihydroporphyrin-2-yl]propanoic acid release by measuring increase in fluorescence intensity at 20 to 80 uM by microplate reader analysis; format: ADME, cell-based; details: dose 20-80 µM
# HeLa [11] = assay: Cytotoxicity against human HeLa cells assessed as reduction in cell viability at 100 uM incubated for 4 hrs under dark condition by MTT assay; format: functional, cell-based
# [12] = as §3, with “measuring fold” for “measuring”, “analysis relative to 5-Aminolevulinic acid” for “analysis”; format: ADME, cell-based; details: dose 20-80 µM
# [13] = Drug metabolism assessed as esterase (unknown origin) mediated hydrolysis by measuring 5-Aminolevulinic acid formation; format: ADME; details: human
# A-375 [14] = assay: Cytotoxicity against human A-375 cells assessed as reduction in cell viability at 100 uM incubated for 4 hrs under dark condition by MTT assay; format: functional, cell-based
# MCF7 [15] = assay: Cytotoxicity against human MCF7 cells assessed as reduction in cell viability at 100 uM incubated for 4 hrs under dark condition by MTT assay; format: functional, cell-based
# [16] = as §2, with “measuring fold” for “measuring”, “analysis relative to 5-Aminolevulinic acid” for “analysis”; format: ADME, cell-based; details: a-375, 80 µM, dose 20-80 µM
# [17] = as §1, with “measuring fold” for “measuring”, “analysis relative to 5-Aminolevulinic acid” for “analysis”; format: ADME, cell-based; details: mcf7, 80 µM, dose 20-80 µM
# MCF7 [18] = assay: Cytotoxicity against human MCF7 cells assessed as reduction in cell viability preincubated for 4 hrs under dark condition in presence of deferiprone followed by irradiation with blue light at 2.5 J.cm^-2 energy level for 5 mins and measured after 18 hrs by MTT assay; format: functional, cell-based; details: MCF7, light or radiation study
# A-375 [19] = assay: Cytotoxicity against human A-375 cells assessed as reduction in cell viability preincubated for 4 hrs under dark condition in presence of deferiprone followed by irradiation with blue light at 2.5 J.cm^-2 energy level for 5 mins and measured after 18 hrs by MTT assay; format: functional, cell-based; details: A-375, light or radiation study
# HeLa [20] = assay: Cytotoxicity against human HeLa cells assessed as reduction in cell viability preincubated for 4 hrs under dark condition in presence of deferiprone followed by irradiation with blue light at 2.5 J.cm^-2 energy level for 5 mins and measured after 18 hrs by MTT assay; format: functional, cell-based; details: light or radiation study
SMILES,pIC50 (A-375 [1]),pIC50 (MCF7 [2]),pIC50 (HeLa [3]),Drug metabolism [4],pIC50 (MCF7 [5]),pIC50 (HeLa [6]),Drug metabolism [7],pIC50 (A-375 [8]),Drug metabolism [9],Drug metabolism [10],Activity (HeLa [11]),fold change (FC) [12],Drug metabolism [13],Activity (A-375 [14]),Activity (MCF7 [15]),fold change (FC) [16],fold change (FC) [17],pIC50 (MCF7 [18]),pIC50 (A-375 [19]),pIC50 (HeLa [20])
Cc1c(O)c(=O)ccn1C [DEFERIPRONE],4.56,4.19,4.21,,,,,,,,,,,,,,,,,
CCCCCCn1c(C)cc(=O)c(O)c1COC(=O)CCC(=O)CN.Cl,,,,Metabolite_Detected,4.36,4.62,Metabolite_Detected,4.55,Metabolite_Detected,Metabolite_Detected,inactive,18.9,Metabolite_Detected,inactive,inactive,2.8,5.3,,,
COCCCn1c(C)cc(=O)c(O)c1COC(=O)CCC(=O)CN.Cl,,,,Metabolite_Detected,4.24,4.18,Metabolite_Detected,4.30,Metabolite_Detected,Metabolite_Detected,inactive,,Metabolite_Detected,inactive,inactive,,,,,
NCC(=O)CCC(=O)O [AMINOLEVULINIC ACID],,,,,< 4.00,< 4.00,,< 4.00,,,,,,,,,,4.19,4.56,4.21
Cc1cc(=O)c(O)c(COC(=O)CCC(=O)CN)n1CCc1ccccc1.Cl,,,,Metabolite_Detected,4.17,4.52,Metabolite_Detected,4.33,Metabolite_Detected,Metabolite_Detected,inactive,,Metabolite_Detected,inactive,inactive,,,,,
CCCCn1c(C)cc(=O)c(O)c1COC(=O)CCC(=O)CN.Cl,,,,Metabolite_Detected,4.42,4.16,Metabolite_Detected,4.38,Metabolite_Detected,Metabolite_Detected,inactive,,Metabolite_Detected,inactive,inactive,,,,,
CCCCCn1c(C)cc(=O)c(O)c1COC(=O)CCC(=O)CN.Cl,,,,Metabolite_Detected,4.34,4.32,Metabolite_Detected,4.33,Metabolite_Detected,Metabolite_Detected,inactive,,Metabolite_Detected,inactive,inactive,,,,,
CCOCCCn1c(C)cc(=O)c(O)c1COC(=O)CCC(=O)CN.Cl,,,,Metabolite_Detected,4.19,4.36,Metabolite_Detected,4.28,Metabolite_Detected,Metabolite_Detected,inactive,,Metabolite_Detected,inactive,inactive,,,,,
CCCCCCCCn1c(C)cc(=O)c(O)c1COC(=O)CCC(=O)CN.Cl,,,,Metabolite_Detected,4.31,4.35,Metabolite_Detected,4.41,Metabolite_Detected,Metabolite_Detected,Active,,Metabolite_Detected,,,,,,,
